Results taken from patent US6821970B2, “Oxazinocarbazoles for the treatment of CNS diseases” (Pharmacia & Upjohn Company, priority 1999, dated 2004).
Structures can show the parent of a compound that is named as a salt.

How the values were obtained:
[1] = molecular target: T1, cloned human 5-HT6 receptor (Homo sapiens, UniProt P50406); experiment: 5-HT6 receptor binding assay ([3H]-LSD radioligand, SPA beads); conditions: membranes of Hela cells containing cloned human 5-HT6 receptor, IC50 converted by Cheng-Prusoff
T1 construct: host or cells: HeLa cells (G-418 selected); membrane preparation
Procedure: 5-HT6 Receport Binding Assay
Growth of Cells and Membrane Preparation
Hela cells containing the cloned human 5-HT6 receptor were acquired from Dr. David R. Sibley's laboratory in National Institute of Health (see Sibley, D. R., J. Neurochemistry, 66, 47-56, 1996). Cells were grown in high glucose Dulbecco's modified Eagle's medium, supplemented with L-glutamine, 0.5% sodium pyruvate, 0.3% penicillin-streptomycin, 0.025% G-418 and 5% Gibco fetal bovine serum and then were harvested, when confluent, in cold phosphate buffered saline.
Harvested intact cells were washed once in cold phosphate-buffered saline. The cells were pelleted and resuspended in 100 ml of cold 50 mM Tris, 5 mM EDTA and 5 mM EGTA, pH 7.4. Homogenization was with a Vir Tishear generator, 4 cycles for 30 seconds each at setting 50. The homogenized cells were centrifuged at […] for 10 minutes and the supernatant was removed. The pellet was resuspended in 100 ml of the above buffer and rehomogenized for 2 cycles. The rehomogenized cells were then centrifuged at […] for 10 minutes and the supernatant was removed. The combined supernatant (200 ml) was centrifuged at 23,000 RPM (80,000×g) for 1 hour in a Beckman Rotor (42.1 Ti). The membrane pellet was resupended in 50-8-ml of assay buffer containing HEPES 20 mM, MgCl2 10 mM, NaCl 150 mM, EDTA 1 mM, pH 7.4 and stored frozen in aliqouts at −70° C.
5-HT6 Receptor Binding Assay
The radioligand binding assay used [^3H]-lysergic acid diethylamide (LSD). The assay was carried out in Wallac 96-well sample plates by the addition of 11 μl of the test sample at the appropriate dilution (the assay employed 11 serial concentrations of samples run in duplicate), 11 μl of radioligand, and 178 μl of a washed mixture of WGA-coated SPA beads and membranes in binding buffer. The plates were shaken for about 5 minutes and then incubated at room temperature for 1 hour. The plates were then loaded into counting cassettes and counted in a Wallac MicroBeta Trilux scintillation counter.
Binding Constant (Ki) Determination
Eleven serial dilutions of test compounds were distributed to assay plates using the PE/Cetus Pro/Pette pipetter. These dilutions were, followed by radioligand and the bead-membrane mixture prepared as described above. The specifically bound cpm obtained were fit to a one-site binding model using GraphPad Prism ver. 2.0. Estimated IC50 values were converted to Ki values using the Cheng-Prusoff equation (Cheng, Y. C. et al., Biochem. Pharmacol., 22, 3099-108, 1973).

T1 sequence (P50406 whole entry): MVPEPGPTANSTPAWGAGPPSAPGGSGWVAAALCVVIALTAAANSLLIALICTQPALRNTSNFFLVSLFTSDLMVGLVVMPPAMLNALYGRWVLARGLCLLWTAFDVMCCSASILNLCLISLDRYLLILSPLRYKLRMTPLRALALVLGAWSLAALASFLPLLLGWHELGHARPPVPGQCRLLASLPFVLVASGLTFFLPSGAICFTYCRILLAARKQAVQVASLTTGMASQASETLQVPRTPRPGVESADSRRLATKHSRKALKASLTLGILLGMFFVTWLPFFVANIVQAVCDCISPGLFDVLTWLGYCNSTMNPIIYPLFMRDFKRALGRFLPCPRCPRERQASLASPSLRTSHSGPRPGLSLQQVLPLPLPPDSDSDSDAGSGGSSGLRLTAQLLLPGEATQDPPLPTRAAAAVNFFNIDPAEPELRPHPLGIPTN

Compound: CCN(CC)CCOc1cccc2c1c1cccc3c1n2C(c1ccccc1)CO3 (centres unmarked) (as salt: maleic acid salt) [Example 3, N,N-Diethyl-2-[(1-phenyl-1,2-dihydro[1,4]oxazino[2,3,4-jk]carbazol-7-yl)oxy]-1-ethanamine]
- melting point: 105 to 107 °C

Compound: NCCOc1cccc2c1c1cccc3c1n2[C@@H](c1ccccc1)CO3 [Example 1, (S)-(+)-[(1-Phenyl-1,2-dihydro[1,4]oxazino[2,3,4-jk]carbazol-7-yl)oxy]ethanamine]
- Ki [1]: 76 nM

Compound: CS(=O)(=O)O.NCCOc1cccc2c1c1cccc3c1n2[C@H](c1ccccc1)CO3 [Example 2, (R)-(−)-[(1-Phenyl-1,2-dihydro[1,4]oxazino[2,3,4-jk]carbazol-7-yl)oxy]ethanamine]
- melting point: 236 °C

Compound: CCN(CC)CCOc1cccc2c1c1cccc3c1n2C(c1ccccc1)CO3 (centres unmarked) [Example 3, N,N-Diethyl-2-[(1-phenyl-1,2-dihydro[1,4]oxazino[2,3,4-jk]carbazol-7-yl)oxy]-1-ethanamine]
- Ki [1]: 7.6 nM

Compound: NCCOc1cccc2c1c1cccc3c1n2C(c1ccccc1)CO3 (centres unmarked) [Example 4, [(1-Phenyl-1,2-dihydro[1,4]oxazino[2,3,4-jk]carbazol-7-yl)oxy]ethanamine]
- Ki [1]: 1.7 nM

Compound: CCNCCOc1cccc2c1c1cccc3c1n2C(c1ccccc1)CO3.O=C(O)/C=C\C(=O)O (centres unmarked) [Example 6, N-Ethyl-2-[(1-phenyl-1,2-dihydro[1,4]oxazino[2,3,4-jk]carbazol-7-yl)oxy]-1-ethanamine]
- Ki [1]: 2.7 nM
- melting point: 105 °C

Compound: O=CNCCOc1cccc2c1c1cccc3c1n2C(c1ccccc1)CO3 (centres unmarked) [Example 7, 2-[(1-Phenyl-1,2-dihydro[1,4]oxazino[2,3,4-jk]carbazol-7-yl)oxy]ethylformamide]
- Ki [1]: 39 nM

Compound: CNCCOc1cccc2c1c1cccc3c1n2C(c1ccccc1)CO3 (centres unmarked) [Example 8, N-Methyl-2-[(1-phenyl-1,2-dihydro[1,4]oxazino[2,3,4-jk]carbazol-7-yl)oxy]-1-ethanamine]
- Ki [1]: 2 nM

Compound: NCCOc1c(Cl)ccc2c1c1cccc3c1n2C(c1ccccc1)CO3 (centres unmarked) [Example 9, 2-[(8-Chloro-1-phenyl-1,2-dihydro[1,4]oxazino[2,3,4-jk]carbazol-7-yl)oxy]-1-ethanamine]
- Ki [1]: 5.8 nM

Compound: CCNCCOc1cccc2c1c1cc(C)cc3c1n2C(c1ccccc1)CO3 (centres unmarked) [Example 11, N-Ethyl-2-[(5-methyl-1-phenyl-1,2-dihydro[1,4]oxazino[2,3,4-jk]carbazol-7-yl)oxy]-1-ethanamine]
- Ki [1]: 5.3 nM

Compound: CC(C)(C)OC(=O)N1CCN(CCOc2cccc3c2c2cccc4c2n3C(c2ccccc2)CO4)CC1 (centres unmarked) [Example 12, tert-Butyl 4-{2-[(1-phenyl-1,2-dihydro[1,4]oxazino[2,3,4-jk]carbazol-7-yl)oxy]ethyl}-1-piperazinecarboxylate]
- Ki [1]: 35 nM
- melting point: 72 °C

Compound: c1ccc(C2COc3cccc4c5c(OCCN6CCNCC6)cccc5n2c34)cc1 (centres unmarked) [Example 13, 1-Phenyl-1,2-dihydro[1,4]oxazino[2,3,4-jk]carbazol-7-yl 2-(1-piperazinyl)ethyl Ether]
- Ki [1]: 57 nM
- melting point: 72 °C

Compound: CN1CCN(CCOc2cccc3c2c2cccc4c2n3C(c2ccccc2)CO4)CC1 (centres unmarked) [Example 14, 2-(4-Methyl-1-piperazinyl)ethyl 1-phenyl-1,2-ihydro[1,4]oxazino [2,3,4-jk]carbazol-7-yl Ether]
- Ki [1]: 6.9 nM
- melting point: 57 °C

Compound: c1ccc(C2COc3cccc4c5c(OCCN6CCOCC6)cccc5n2c34)cc1 (centres unmarked) [Example 15, 2-(4-Morpholinyl)ethyl 1-phenyl-1,2-dihydro[1,4]oxazino[2,3,4-jk]carbazol-7-yl Ether]
- Ki [1]: 97 nM

Compound: c1ccc(C2COc3cccc4c5c(OCCN6CCCCC6)cccc5n2c34)cc1 (centres unmarked) [Example 16, 1-Phenyl-1,2-dihydro[1,4]oxazino[2,3,4-jk]carbazol-7-yl 2-(1-piperidinyl)ethyl Ether]
- Ki [1]: 5 nM

Compound: OCCNCCOc1cccc2c1c1cccc3c1n2C(c1ccccc1)CO3 (centres unmarked) [Example 17, 2-({2-[(1-Phenyl-1,2-dihydro[1,4]oxazino[2,3,4-jk]carbazol-7-yl)oxy]ethyl}amino)-1-ethanol]
- Ki [1]: 1.1 nM

Compound: CN(C)CCOc1cccc2c1c1cccc3c1n2C(c1ccccc1)CO3 (centres unmarked) [Example 18, N,N-dimethyl-2-[(1-phenyl-1,2-dihydro[1,4]oxazino[2,3,4-jk]carbazol-7-yl)oxy]-1-ethanamine]
- Ki [1]: 3.3 nM
- melting point: 117 to 118 °C

Compound: Cc1cc2c3c(c1)c1c(OCCN)cccc1n3C(c1ccccc1)CO2 (centres unmarked) [Example 19, 2-[(5-Methyl-1-phenyl-1,2-dihydro[1,4]oxazino[2,3,4-jk]carbazol-7-yl)oxy]-1-ethanamine]
- Ki [1]: 8 nM

Compound: CCN(CC)CCCCOc1cccc2c1c1cccc3c1n2C(c1ccccc1)CO3 (centres unmarked) [Example 20, N,N-Diethyl-N-{4-[(1-phenyl-1,2-dihydro[1,4]oxazino[2,3,4-jk]carbazol-7-yl)oxy]butyl}amine]
- Ki [1]: 28 nM

Compound: CCN(CC)CCCOc1cccc2c1c1cccc3c1n2C(c1ccccc1)CO3 (centres unmarked) [Example 21, N,N-Diethyl-N-{3-[(1-phenyl-1,2-dihydro[1,4]oxazino[2,3,4-jk]carbazol-7-yl)oxy]propyl}amine]
- Ki [1]: 19 nM

Compound: OCCNCCOc1cccc2c1c1cccc3c1n2[C@H](c1ccccc1)CO3 [Example 22, [(2-{[(1R)-1-Phenyl-1,2-dihydro[1,4]oxazino[2,3,4-jk]carbazol-7-yl]oxy}ethyl)amino]ethanol]
- Ki [1]: 3 nM
